Measurements reported in PMC12537910, “Mosquito salivary sialokinin reduces monocyte activation and chikungunya virus-induced inflammation via neurokinin receptors” (Nature Communications, 2025).
“And” between values parts separate entries of the source, which are not always exact repeats. Identical values can stand only once. No end group written: not given here.

Columns and labels:
Format in all cases: cell-based
human NK1R [1] = molecular target: T1, human NK1R (Homo sapiens, UniProt P25103)
T1 construct: expressed in transfected cells; host or cells: CHO (CHO-K1) cells, stably transfected; gift from Dr Shinya Oishi, Kyoto University
T1 sequence (P25103 whole entry): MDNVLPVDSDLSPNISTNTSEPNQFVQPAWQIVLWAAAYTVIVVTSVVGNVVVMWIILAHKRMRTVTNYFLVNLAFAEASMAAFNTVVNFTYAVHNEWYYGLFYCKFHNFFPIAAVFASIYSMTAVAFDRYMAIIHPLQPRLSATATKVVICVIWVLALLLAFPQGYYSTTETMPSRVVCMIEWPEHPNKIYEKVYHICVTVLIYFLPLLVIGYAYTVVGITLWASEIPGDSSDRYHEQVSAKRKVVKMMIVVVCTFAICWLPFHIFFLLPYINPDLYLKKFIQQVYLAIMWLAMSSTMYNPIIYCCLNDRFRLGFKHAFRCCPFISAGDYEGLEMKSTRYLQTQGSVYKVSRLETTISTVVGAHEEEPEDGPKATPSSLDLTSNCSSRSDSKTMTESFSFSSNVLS
Excerpt: (§1) Supplementary Fig. 1: Molecular properties of sialokinin and its binding affinities to human neurokinin
(§2) (1 picture or pasted object on this page, not shown here)

PI3K = test: Western blot P-PI3K/PI3K, human monocytes; settings: for effect on sialokinin-stimulated phosphorylation of PI3K: antagonist pre-treatment
Procedure: (§3) DEG analysis was performed using edgeR, with multiple testing corrected via the Benjamini–Hochberg FDR method. […] Relative expression levels of P-PI3K/PI3K (n = 4 biological replicates) and P-Akt/Akt (n = 5 biological replicates) in monocytes at the 20-min time point were quantified with ImageJ. Levels are expressed as fold change relative to the non-treated controls. Bar graphs represent the mean ± standard deviation (SD). […] CD169 levels at 24 h post-treatment were measured by mean fluorescence intensity (MFI) and expressed as fold change relative to non-treated controls. Statistical comparisons were performed using paired two-tailed t-test or Wilcoxon signed-rank test, depending on data distribution.
(§4) Freshly purified human monocytes and six-day-differentiated MDMs ([…] cells/well) were incubated with or without sialokinin peptides in complete IMDM supplemented with 10% (vol/vol) HS (Sigma-Aldrich) and 1% (vol/vol) penicillin-streptomycin. Untreated monocytes and MDMs served as no-treatment controls.
(§5) To detect the phosphorylation status of PI3K/Akt kinases following sialokinin stimulation, cells were lysed with lysis buffer (Cell Signaling Technology) containing 2 mM PMSF. Lysates were separated by SDS-PAGE and subjected to western blotting using the following antibodies: P-PI3K (p85; Tyr458/p55; Tyr199, Cell Signaling Technology, 1:2000), PI3K (p85, Cell Signaling Technology, 1:2000), P-Akt (Ser473, Cell Signaling Technology, 1:2000), and Akt (Cell Signaling Technology, 1:2000). Signal intensities were visualized using a ChemiDoc imaging system (Bio-Rad) and quantified using Image Lab software version 6.0.1 (Bio-Rad).

Akt = test: Western blot P-Akt/Akt, human monocytes; settings: for effect on sialokinin-stimulated phosphorylation of Akt: antagonist pre-treatment
Procedure: as §3, §4, §5

primary human monocytes = test: CD169 expression after antagonist/inhibitor pre-treatment and sialokinin, monocytes; settings: for CD 169 expression (MFI): monocytes 24 h, n = 5; for effect on sialokinin-mediated downregulation of CD169: pre-treatment 30 min before sialokinin, monocytes
Procedure: as §3, §4
Following harvesting, human monocytes and MDMs were specifically stained for the surface markers: CD45, CD14, CCR2, HLA-DR, CD16, CD11b, and CD169 (for monocytes); or CD45, CD14, HLA-DR, CD64, CD86, CD163, CD206, and CD169 (for MDMs). Dead cells were excluded by staining with the LIVE/DEAD Fixable Aqua Dead Cell Stain Kit (Life Technologies). The stained cells were subsequently incubated with FACS lysing solution (BD Biosciences) to lyse the red blood cells. Data were acquired on a Fortessa flow cytometer (BD Biosciences) with BD FACSDiva software version 9.0. Data analysis was performed using FlowJo version 9.3.2 (Tree Star, Inc.).

human NK1R [2] = molecular target: T1, human NK1R; test: Calcium flux assay, CHO cells expressing human NK1R; settings: CHO-K1 cells expressing human NK1R; FLIPR; mean ± SEM of three independent experiments in triplicate; read-out: EC50 (peak calcium response)
Procedure: (§6) We assessed the binding affinity of sialokinin I, the predominant form in Aedes saliva, for human NK receptors using a calcium flux assay.
(§7) Calcium flux assay was carried out on CHO cells stably transfected with one of the human NK receptors (NK1R, NK2R, or NK3R). CHO cells were seeded at a density of 70,000 cells/well in 100 µL of Ham’s F-12 media in a black 96-well clear-bottom plate (Greiner). After overnight incubation, the media was replaced with Calcium 6 assay dye from Molecular Devices (1:1 dilution with buffer solution of 1× HBSS containing 20 mM HEPES) followed by incubation for 2 h at 37 °C for the absorption of dye into the cytoplasm. The intracellular calcium ion flux analysis was performed at different concentrations of sialokinin (tenfold dilution) using a FLIPR Tetra instrument (Molecular Devices). Fluorescence signal was recorded at excitation and emission wavelengths of 485 nm and 535 nm, respectively. The change in fluorescence is presented as the percent change with respect to baseline fluorescence. EC50 values were determined from dose-response curves plotted using Prism 5 (GraphPad).
as §1, §2

human NK2R = molecular target: T2, human NK2R (Homo sapiens, UniProt P21452); test: Calcium flux assay, CHO cells expressing human NK2R; settings: CHO-K1 cells expressing human NK2R; FLIPR; mean ± SEM of three independent experiments in triplicate; read-out: EC50 (peak calcium response)
T2 construct: expressed in transfected cells; host or cells: CHO (CHO-K1) cells, stably transfected; gift from Dr Shinya Oishi, Kyoto University
T2 sequence (P21452 1-398): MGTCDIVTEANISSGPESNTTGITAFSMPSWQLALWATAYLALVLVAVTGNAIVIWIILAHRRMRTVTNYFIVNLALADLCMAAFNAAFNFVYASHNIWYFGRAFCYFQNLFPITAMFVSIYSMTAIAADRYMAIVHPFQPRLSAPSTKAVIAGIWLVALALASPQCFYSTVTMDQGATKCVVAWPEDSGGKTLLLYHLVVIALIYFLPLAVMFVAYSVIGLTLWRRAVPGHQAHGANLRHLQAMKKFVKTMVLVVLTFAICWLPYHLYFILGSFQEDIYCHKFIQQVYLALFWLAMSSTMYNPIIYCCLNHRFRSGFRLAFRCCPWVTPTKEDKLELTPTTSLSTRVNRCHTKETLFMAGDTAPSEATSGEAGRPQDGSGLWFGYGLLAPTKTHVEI
Procedure: as §6, §7, §1, §2

human NK3R = molecular target: T3, human NK3R (Homo sapiens, UniProt P29371); test: Calcium flux assay, CHO cells expressing human NK3R; settings: CHO-K1 cells expressing human NK3R; FLIPR; mean ± SEM of three independent experiments in triplicate; read-out: EC50 (peak calcium response)
T3 construct: expressed in transfected cells; host or cells: CHO (CHO-K1) cells, stably transfected; gift from Dr Shinya Oishi, Kyoto University
T3 sequence (P29371 1-465): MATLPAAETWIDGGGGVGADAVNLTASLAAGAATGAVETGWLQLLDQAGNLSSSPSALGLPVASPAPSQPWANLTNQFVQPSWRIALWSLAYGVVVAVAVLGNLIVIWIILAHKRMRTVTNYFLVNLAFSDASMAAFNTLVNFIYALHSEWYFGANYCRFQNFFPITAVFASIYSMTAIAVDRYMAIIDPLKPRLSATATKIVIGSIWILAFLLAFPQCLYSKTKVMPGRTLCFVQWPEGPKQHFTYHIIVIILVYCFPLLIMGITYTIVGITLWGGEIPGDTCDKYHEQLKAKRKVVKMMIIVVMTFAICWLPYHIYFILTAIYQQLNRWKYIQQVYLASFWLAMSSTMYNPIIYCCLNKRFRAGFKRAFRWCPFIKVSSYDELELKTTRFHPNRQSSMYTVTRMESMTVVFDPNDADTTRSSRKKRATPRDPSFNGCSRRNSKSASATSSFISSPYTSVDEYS
Procedure: as §6, §7, §1, §2

[3] = GR-159897 + sialokinin, individual replicates

`COc1ccccc1CN[C@H]1C2CCN(CC2)[C@H]1C(c1ccccc1)c1ccccc1` [CP-96345] was tested, and the “effect on Emax of sialokinin at NK1R” value (human NK1R [1]) was “without affecting the Emax value”, the “effect on sialokinin-stimulated phosphorylation of PI3K” value (PI3K) was “reduced” and the “effect on sialokinin-stimulated phosphorylation of Akt” value (Akt) was “reduced”. The “CD 169 expression (MFI)” value (primary human monocytes; CP-96345 + sialokinin, individual replicates) was 387 MFI and 396 MFI and 194 MFI and 919 MFI and 1966 MFI, the “CD 169 expression (MFI)” value (primary human monocytes; CP-96345 inhibitor only, individual replicates) was 586 MFI and 529 MFI and 236 MFI and 1225 MFI and 3060 MFI and the “effect on sialokinin-mediated downregulation of CD169” value (“effect … of CD169” for short) (primary human monocytes) was “only partially neutralized”.

In the case of `COC1(C[S@@+]([O-])c2ccccc2)CCN(CCc2c[nH]c3ccc(F)cc23)CC1` [GR-159897], the “effect on sialokinin-stimulated phosphorylation of PI3K” value (PI3K) is reported as “reduced”, the “P-PI3K/PI3K (expression relative to untreated control)” value (PI3K; pre-treatment with NK2R antagonist then sialokinin, 20 min, individual replicates, n = 4) is reported as 0.877 and 0.977 and 0.987 and 0.967 and the “effect on sialokinin-stimulated phosphorylation of Akt” value (Akt) is reported as “reduced”. For the same compound, the “P-Akt/Akt (expression relative to untreated control)” value (Akt; pre-treatment with NK2R antagonist then sialokinin, 20 min, individual replicates, n = 5) was 0.9906 and 1.222 and 1.192 and 0.816 and 0.7836, the “CD169 relative fold change” value (primary human monocytes; [3]) was 0.8629 and 0.8036 and 0.6381 and 0.8197 and 0.5757 and the “CD 169 expression (MFI)” value (primary human monocytes; [3]) was 1530 MFI and 1669 MFI and 977 MFI and 2300 MFI and 1731 MFI. For the same compound, the “CD 169 expression (MFI)” value (primary human monocytes; GR-159897 inhibitor only, individual replicates) was 1773 MFI and 2077 MFI and 1531 MFI and 2806 MFI and 3007 MFI and the “effect … of CD169” value (primary human monocytes) was “only partially neutralized”.

With `O=c1cc(N2CCOCC2)oc2c(-c3ccccc3)cccc12` [LY-294002] the “CD 169 expression (MFI)” value (primary human monocytes; LY-294002 + sialokinin, individual replicates) was 182 MFI and 164 MFI and 106 MFI and 91.9 MFI and 143 MFI, the “CD 169 expression (MFI)” value (primary human monocytes; LY-294002 inhibitor only, individual replicates) was 216 MFI and 280 MFI and 107 MFI and 103 MFI and 164 MFI and the “effect … of CD169” value (primary human monocytes) was “completely blocked”.

NTGDKFYGLM-NH2 [Sialokinin I] gave an EC50 (human NK1R [2]) of 52 ± 28 pM, an EC50 (human NK2R) of 288 ± 107 pM and an EC50 (human NK3R) of 1290 ± 281 pM.
